Values quoted from earlier work, collected in US20210379103A1, “ANISOTROPIC NANOPARTICLE COMPOSITIONS AND METHODS” (Buckyol Limited, priority 2017, published 2021).

Conditions: C60(OH)8 with OH-groups forming a compact island

For octa-hydroxylated fullerene [C60(OH)8], the hydration energy is listed as −224 kJ per mol.
